{"source": "patent US20100021938A1", "about": "“Diagnosis and Prediction of Alzheimer's Disease” (priority 2008, published 2010)", "key": {"[1]": {"test_system": "human platelets", "test": "sAPPα release by human platelets, Western blot of supernatant (antibody 6E10)", "format": "cell-based", "settings": "for sAPPα release by washed platelets: collagen up to 5 μg/ml, ADP up to 25 μM", "experimental": "FIG. 2: sAPPα release is mediated through G protein-coupled receptors. Human platelets (600,000 cells/μl) were incubated with 20 μM arachidonic acid (AA), U46,619 (500 nM), PAR1-AP (100 μM), PAR4-AP (200 μM) or thrombin (1 U/ml) for 1 h. The cells were then pelleted at 10,000×g for 15 min and the levels of sAPPα in the supernatant were determined by Western blot analysis using the antibody 6E10 (Calbiochem).\nFIG. 3: The effect of arachidonic acid is mediated by the TP receptor. Left panel: Human platelets were incubated by increasing concentrations of U46,619 and sAPPa was analyzed in the supernatant as described for FIG. 2. Right panel: Human platelets were pre-incubated for 15 min with increasing concentration of an antagonist of the TP receptor, SQ29,548, prior addition of 7.5 μM of arachidonic acid. sAPPα release was analyzed by western blot.\nFIG. 4: Activation of PGI2 receptor inhibits sAPPa release triggered by U46,619. Human platelets were pre-incubated for 30 min with increasing concentrations of carbaprostacylin prior addition of 500 nM of U46,619. After 1 h the levels of sAPPa in the supernatant were determined by western blot analysis. Protein bands were scanned and the pixels integrated. sAPPa release is expressed as a percent of maximum where no CP was added.\nFIG. 5: PGE2 potentiates the effect of a sub-efficacious concentration of arachidonic acid. Washed platelets were pre-incubated for 2 min with increasing concentrations of PGE2 or vehicle prior addition of 0.5 μM of arachidonic acid. After 1 h, sAPPα release in the supernatant was determined by Western blot analysis as described in FIG. 2. Protein bands were scanned and the pixels integrated. sAPPα release is expressed as a percent of the maximum obtained with 7.5 nM PGE2 and 0.5 μM arachidonic acid.\nSecretion of sAPPα has been analyzed in human platelets in response to various agonists."}, "[2]": {"test_system": "human washed platelets", "test": "sAPPα and sAPPβ released from activated human washed platelets, LC/ESI/MS/MS", "format": "cell-based", "settings": "300 μl platelets at 600,000 cells/μl activated with 500 nM", "experimental": "FIG. 10: Detection of the two sAPP isoforms released from human platelets. 300 μl of human washed platelets at 600,000 cells/μl were activated with 500 nM U46,619. sAPPs released in the medium were immunoprecipitated and digested with trypsin. The peptides were analyzed as described above. The product ions y6 and y4 were monitored for TEEISEVK and MDAEFR, respectively. Chromatograms of the two product ions are shown for each sAPP isoform.\nInternal standards for each peptide were obtained by incorporation of a [^13C] labeled amino acid. Human washed platelets (600,000 cells/Ml, 300 μl) were activated with 500 nM of U46,619 and the release of sAPPs was analyzed after centrifuging the cells at 2,000×g for 15 min. After immunoprecipitation of the sAPPs and digestion with trypsin, 150 pg of MDAE[^13C]-FR and TEE[^13C]-ISEVK were added as internal standards and the samples were analyzed by LC/ESI/MS/MS using the LCQ Deca XP ion trap mass spectrometer (Thermo Scientific, Waltham, Mass.)."}, "[3]": {"test_system": "3xTg-AD mice", "settings": "cited from earlier work"}, "[4]": {"target": "T1, M1 muscarinic receptor (M1mAChR) (Homo sapiens, UniProt P11229)", "T1 construct": "host or cells: patients with AD (endogenous receptor, in vivo)", "T1 sequence (P11229 1-460)": "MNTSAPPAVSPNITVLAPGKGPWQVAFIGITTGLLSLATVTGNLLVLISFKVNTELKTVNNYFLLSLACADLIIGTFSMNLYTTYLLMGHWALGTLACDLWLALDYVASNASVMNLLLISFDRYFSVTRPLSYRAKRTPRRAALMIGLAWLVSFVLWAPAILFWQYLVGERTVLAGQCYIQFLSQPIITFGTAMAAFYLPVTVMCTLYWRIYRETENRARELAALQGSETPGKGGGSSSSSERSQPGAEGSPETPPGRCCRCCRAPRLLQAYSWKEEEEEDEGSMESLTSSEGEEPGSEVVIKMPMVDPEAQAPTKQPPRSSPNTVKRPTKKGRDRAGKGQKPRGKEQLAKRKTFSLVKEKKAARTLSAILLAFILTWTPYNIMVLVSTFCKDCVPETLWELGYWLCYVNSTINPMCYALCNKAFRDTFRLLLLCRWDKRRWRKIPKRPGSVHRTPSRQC", "settings": "patients with AD (Nitsch et al., 2000); cited from earlier work"}, "[5]": {"settings": "3xTg-AD mice (Caccamo et al., 2006)"}}}
{"compound": "CCCCC[C@H](O)/C=C/[C@H]1[C@H](O)CC(=O)[C@@H]1C/C=C\\CCCC(=O)O", "note": "[PGE2]", "values": [{"measurement": "potentiation of sAPPα release by sub-efficacious arachidonic acid", "setting": "[1]; concentrations higher than 10 nM, with 0.5 μM arachidonic acid", "value": "this potentiation effect was reversed"}, {"measurement": "sAPPα release, compound by itself", "setting": "[1]; highest concentration used, without arachidonic acid", "value": "had no effect on sAPPα release"}, {"measurement": "potentiation of sAPPα release by sub-efficacious arachidonic acid", "setting": "[1]; low nanomolar concentrations, pre-incubated 2 min prior to 0.5 μM arachidonic acid, 1 h", "value": "potentiates sAPPα release"}, {"measurement": "concentration giving maximum sAPPα release with 0.5 μM arachidonic acid", "setting": "[1]; washed platelets, 0.5 μM arachidonic acid, 1 h", "value": 7.5, "unit": "nM"}]}
{"compound": "CCCCC[C@H](O)/C=C/[C@@H]1[C@@H](C/C=C\\CCCC(=O)O)[C@H]2CO[C@@H]1C2", "note": "[U46,619]", "values": [{"measurement": "sAPPα release in response to agonist", "setting": "[1]; human platelets 600,000 cells/μl, 1 h incubation, U46,619 500 nM, PAR1-AP 100 μM, PAR4-AP 200 μM", "value": "gave the same response as 20 μM of arachidonic acid"}, {"measurement": "concentration giving maximal response of sAPPα release", "setting": "[1]; human platelets, increasing concentrations", "value": 500, "unit": "nM"}, {"measurement": "amount of sAPPα released", "setting": "[2]", "value": 45, "unit": "pg"}, {"measurement": "amount of sAPPβ released", "setting": "[2]", "value": 41, "unit": "pg"}]}
{"compound": "CCCCC[C@H](O)/C=C/[C@@H]1[C@H]2C/C(=C/CCCC(=O)O)C[C@H]2C[C@H]1O", "note": "[carbaprostacyclin]", "values": [{"measurement": "effect on sAPPα release triggered by U46,619", "setting": "[1]; pre-incubated 30 min with increasing concentrations prior to 500 nM U46,619, 1 h", "value": "antagonized in a dose-dependent manner the effect of U46,619"}]}
{"compound": "CC[C@@H]1SC2(CCN(C)CC2)NC1=O", "note": "[AF267B]", "values": [{"measurement": "APP processing via the β-secretase pathway", "setting": "[3]; [5]", "value": "decreases APP processing via the β-secretase pathway"}, {"measurement": "development of amyloid pathology", "setting": "[3]; [5]", "value": "decreases development of amyloid pathology"}, {"measurement": "expression of ADAM 17/TACE", "setting": "[3]; Caccamo et al., 2006", "value": "increases expression of ADAM 17/TACE"}]}
{"compound": "O=C(O)CCC/C=C\\C[C@@H]1[C@H](CNNC(=O)Nc2ccccc2)[C@H]2CC[C@@H]1O2", "note": "[SQ29,548]", "values": [{"measurement": "effect on sAPPα release triggered by arachidonic acid", "setting": "[1]; pre-incubated 15 min with increasing concentrations prior to 7.5 μM arachidonic acid", "value": "antagonized"}]}
{"compound": "collagen", "values": [{"measurement": "sAPPα release by washed platelets", "setting": "[1]", "value": "failed to trigger release of sAPPα"}]}
{"compound": "CCCCC/C=C\\C/C=C\\C/C=C\\C/C=C\\CCCC(=O)O", "note": "[arachidonic acid]", "values": [{"measurement": "concentration giving maximal effect on sAPPα release", "setting": "[1]; human platelets", "value": 7.5, "unit": "µM"}]}
{"compound": "CC1OC2(CS1)CN1CCC2CC1", "note": "(centres unmarked) [AF102B]", "values": [{"measurement": "levels of amyloid in cerebrospinal fluid", "setting": "[4]", "value": "decrease the levels of amyloid in cerebrospinal fluid"}]}
{"compound": "Nc1ncnc2c1ncn2[C@@H]1O[C@H](COP(=O)(O)OP(=O)(O)O)[C@@H](O)[C@H]1O", "note": "[ADP]", "values": [{"measurement": "sAPPα release by washed platelets", "setting": "[1]", "value": "had no effect on sAPPα release"}]}
